Like-named read-outs stand apart in the source and are kept apart here.
Experiments:
[1] = Metal oxide dispersibility test (titanium oxide); assay type: physicochemical; conditions: 0.25 g compound, 0.50 g water, 0.10 g titanium oxide (IV); visual
DNA = DNA long-term stability, 50% aqueous solution; conditions: 40° C., 80% RH
cytochrome C [2] = biological target: T1, cytochrome C (Equus caballus, UniProt P00004); test: Protein long-term stability (IR and UV spectrum), solid sample; design: species or system Horse; conditions: cytochrome C, solid sample, 40° C., 80% RH, after 30 days
T1 construct: a reagent produced by NACALAI TESQUE, INC; (Horse Heart, molecular weight 12384) was used; purchased NACALAI TESQUE, INC; host or cells: horse heart (tissue origin)

urease [3] = biological target: T2, urease (Canavalia ensiformis, UniProt P07374); assay type: biochemical, sword bean; conditions: urease, 40° C., 80% RH, after 30 days, 1:1; for Enzyme activity retention rate (%) (after 30 days) Stabilizer:Enzyme = 1:1, Mixed by mortar: solid sample mixed by mortar; for Enzyme activity retention rate (%) (after 30 days) Stabilizer:Enzyme = 1:1, Solvent distilled away from dissolution solution: solid sample
[4] = Carbon nanotube dispersibility test; assay type: physicochemical; conditions: 0.25 g compound, 0.75 g water, 0.025 g carbon nanotubes; visual
[5] = Metal oxide dispersibility test (zirconium oxide); assay type: physicochemical; conditions: 0.25 g compound, 0.50 g water, 0.10 g zirconium oxide (IV); visual
urease [6] = biological target: T2, urease; assay type: biochemical, sword bean; conditions: urease in 50 wt % aqueous solution of compound; 40° C., 80% RH; after 30 days; Stabilizer:Enzyme = 1:1
[7] = Organic dye dispersibility test; assay type: physicochemical; conditions: 0.2 g compound, 0.7 g water, 0.1 g Vali Fast Black 3830; ultrasonic dispersion; after 24 hours; visual
urease [8] = biological target: T2, urease; assay type: biochemical, sword bean; conditions: solid sample, 40° C., 80% RH, after 30 days
cytochrome C [9] = biological target: T1, cytochrome C; test: Protein long-term stability, 50% aqueous solution; design: species or system Horse; conditions: cytochrome C in 50 wt % aqueous solution of compound; 40° C.; after 30 days; 1:1
Method: At first, changes in amide absorption by IR spectrum were precisely observed, and there were confirmed the higher-order structures of protein (turn, α-helix, random coil, β-sheet). The amide I region (1,600 to 1,700 cm^−1) and the amide II region (1,500 to 1,600 cm^−1) were measured by ATR method using a Fourier transform infrared spectrophotometer (FT/IR-6100 by JASCO Corporation), and peaks were then detected based on a difference(s) between a cytochrome C-free organic ammonium salt sample (blank) and a cytochrome C-containing organic ammonium salt sample (sample).
Further, the activity state of cytochrome C (Fe^2+: reduced form, Fe^3+: oxidized form) was confirmed via absorptions in UV spectrum. The measurement was conducted using an ultraviolet-visible spectrophotometer and a quartz cell having an optical path width of 2 mm, immediately after diluting the cytochrome C-containing organic ammonium salt sample to 1% with a 50 mM phosphate buffer of pH 7.4 (prepared using 50 mM potassium dihydrogen phosphate and 50 mM dipotassium hydrogen phosphate).

T1 sequence (P00004 whole entry): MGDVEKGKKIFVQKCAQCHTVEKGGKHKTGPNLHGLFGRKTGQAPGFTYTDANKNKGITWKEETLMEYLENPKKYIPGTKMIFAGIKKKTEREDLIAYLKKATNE
T2 sequence (P07374 whole entry, looked up): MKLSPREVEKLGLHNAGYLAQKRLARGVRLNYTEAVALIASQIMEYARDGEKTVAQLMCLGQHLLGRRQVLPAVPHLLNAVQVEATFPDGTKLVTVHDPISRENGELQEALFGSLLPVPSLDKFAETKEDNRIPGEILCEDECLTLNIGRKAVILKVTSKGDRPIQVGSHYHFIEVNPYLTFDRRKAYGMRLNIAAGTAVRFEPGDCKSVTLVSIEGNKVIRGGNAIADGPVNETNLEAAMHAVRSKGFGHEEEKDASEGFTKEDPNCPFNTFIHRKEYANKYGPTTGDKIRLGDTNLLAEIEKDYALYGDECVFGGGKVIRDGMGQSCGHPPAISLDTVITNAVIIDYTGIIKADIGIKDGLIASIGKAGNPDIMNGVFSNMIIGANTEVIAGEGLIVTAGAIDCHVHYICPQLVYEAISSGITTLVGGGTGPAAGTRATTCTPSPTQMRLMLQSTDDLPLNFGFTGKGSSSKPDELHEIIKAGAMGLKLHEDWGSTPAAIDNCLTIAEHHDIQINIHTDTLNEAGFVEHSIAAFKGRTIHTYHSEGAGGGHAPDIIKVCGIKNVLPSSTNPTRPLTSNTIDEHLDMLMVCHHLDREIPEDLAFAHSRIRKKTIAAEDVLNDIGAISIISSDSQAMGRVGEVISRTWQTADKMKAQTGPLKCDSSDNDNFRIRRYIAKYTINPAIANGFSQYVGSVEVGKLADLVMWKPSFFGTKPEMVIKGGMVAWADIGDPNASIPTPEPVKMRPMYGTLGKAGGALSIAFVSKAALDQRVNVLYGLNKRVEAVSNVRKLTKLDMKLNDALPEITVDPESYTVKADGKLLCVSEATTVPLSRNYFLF

Row | Compound | Titanium oxide dispersibility [1] | DNA long-term stability (after 30 days) Stabilizer: DNA = 1:1 (DNA) | Protein long-term stability (after 30 days) Stabilizer: Protein = 0.1:1 (cytochrome C [2]) | Protein long-term stability (after 30 days) Stabilizer: Protein = 1:1 (cytochrome C [2]) | Protein long-term stability (after 30 days) Stabilizer: Protein = 10:1 (cytochrome C [2]) | Enzyme activity retention rate (%) (after 30 days) Stabilizer:Enzyme = 1:1, Mixed by mortar (urease [3]) | Enzyme activity retention rate (%) (after 30 days) Stabilizer:Enzyme = 1:1, Solvent distilled away from dissolution solution (urease [3]) | Carbon nanotube dispersibility [4] | Zirconium oxide dispersibility [5] | Enzyme activity retention rate(%) (after 30 days) Stabilizer: Enzyme = 1:1 (urease [6]) | Dye dispersibility [7] | Enzyme activity retention rate(%) (after 30 days) Stabilizer: Enzyme = 0.1:1 (urease [8]) | Enzyme activity retention rate(%) (after 30 days) Stabilizer: Enzyme = 1:1 (urease [8]) | Enzyme activity retention rate(%) (after 30 days) Stabilizer: Enzyme = 10:1 (urease [8]) | Protein long-term stability (after 30 days) Stabilize:Protein = 1:1 (cytochrome C [9])
1 | NC(CO)CO [Working example 26] | ○ | ○ | ◯ | ◯ | ◯ | 13 | 81 | ○ | ○ | 18 | ○ | 10 | 81 | 25 | ○
2 | CCC(N)(CO)CO [Working example 35] |  | ○ ○ |  |  |  | 0 | 16 |  |  | 10 |  | 9 | 16 | 22 | 
3 | CCC(N)(CO)CO [Working example 27] | ○ ○ | ○ ○ | ◯ ◯ | ◯ ◯ | ◯ ◯ | 10 | 74 | ○ ○ | ○ ○ | 11 |  | 8 | 74 | 20 | ○ ○

Source: patent publication US20240057587A1, “ORGANIC AMMONIUM SALT AND HYDROGEN-BONDING MATERIAL TREATMENT AGENT USING SAME” (MIYOSHI OIL & FAT CO.,LTD., priority 2019, published 2024)
